Literature values in US20090214446A1, “CYCLODEXTRIN INCLUSION COMPLEXES AND METHODS OF PREPARING SAME” (CARGILL, INCORPORATED, priority 2005, published 2009).

conditions: octanol/water

log P | SMILES
0.30 | CCc1occc(=O)c1O [ethyl maltol]
−1.34 | CC(=O)C(C)=O [diacetyl]

SMILES | log P
C=C(C)[C@H]1CC=C(C)CC1 [limonene] | 4.83
